In patent US20050084490A1, “Boroproline compound combination therapy” (Point Therapeutics, Inc., priority 2002, published 2005):

Assays:
Namalwa cells = assay: NOD/SCID mouse model of Burkitt's Non-Hodgkin's Lymphoma; assay type: in vivo, NOD/SCID mice; conditions: Namalwa subcutaneous tumors; PT-100 5 μg twice daily day 2 to 20; antibody or normal human IgG 1.5 mg on days 3, 5 and 7
Experimental: Immunodeficient NOD/SCID mice were inoculated with Namalwa cells derived from a Burkitt's NHL. The human lymphoma cells proliferated in the immunodeficient mice to form solid subcutaneous tumors. Mice were administered 1.5 mg of normal human lgG or 1.5 mg of a human CD20-specific antibody (Rituxan) on each of days 3, 5 and 7 after tumor inoculation. Additional treatments with 5 μg PT-100 administered twice daily from day 2 until day 20 after tumor inoculation were given as indicated in the Figure Legend. The four treatment groups each contained 4 or 5 replicate mice. The data represent mean tumor volumes (±SE). Control treatment with normal human IgG had no effect on tumor growth as compared with saline treatment (data not shown). […] The data support the concept that when combined together, PT-100 and a tumor-specific antibody can have a greater growth inhibitory effect against a tumor than either treatment by itself.

IL-1β, G-CSF and KC [1] = assay: ELISA of IL-1β, G-CSF and KC in serum and spleen extracts of BALB/c mice; assay type: in vivo; conditions: 20 μg oral, 8 hours after administration
Experimental: BALB/c mice were orally administered 20 μg PT-100 or saline as indicated on the abscissae. Eight hours after PT-100 administration, IL-1β, G-CSF and KC levels were determined by ELISA (R&D Systems) of serum and extracts of spleens. Cytokine and chemokine levels are indicated on the ordinate as pg/ml or ng/ml of serum, and as pg/mg or ng/mg of protein in each spleen extract as determined by BCA protein assays (Pierce).

[2] = tested on: cytokine and chemokine genes; assay: Cytokine and chemokine gene expression (Affymetrix GeneChips) in lymph nodes and WEHI 164 tumors; assay type: in vivo, mice; conditions: 5 μg twice daily
Experimental: (§1) Mice were inoculated with WEHI 164 cells, and starting 2 days later, administered (twice daily) a 5 μg dose of PT-100 or saline (control). RNA extracted from lymph nodes and tumors 2 hours after the first dose of PT-100 on day 4 after tumor inoculation was processed, labeled and hybridized to Affymetrix GeneChips according to the manufacturer's instructions. The log ratio of expression values (PT-100 treated:saline treatment) has been plotted on the ordinates for the cytokine and chemokine genes indicated on the abscissae. Zero values indicate that gene expression was either undetectable or unaffected by PT-100 treatment.
as §1, with “tumors 30 minutes or” for “tumors”, “ratios for” for “ratio of”, “have” for “has”, “cytokine” for “cytokine and chemokine”, “treatment. […]” for “treatment.”

WEHI 164 tumor cells = assay: WEHI 164 tumor growth and rejection in euthymic and athymic BALB/c mice; assay type: in vivo; conditions: 5 μg dose; for tumor growth (tumor volume): day 2 until day 20 after tumor inoculation
Experimental: Normal euthymic BALB/c mice (+/+) or athymic BALB/c mice that are congenitally deficient in mature T lymphocytes (nu/nu) were inoculated with WEHI 164 tumor cells. The mice were administered a 5 μg dose of PT-100 or saline (control) from day 2 until day 20 after tumor inoculation and tumor volumes ([…]) were measured at the times indicated on the ordinate. Each treatment group contained 10 replicate mice. […] In euthymic mice, however, tumors were completely rejected by day 20 in 40 per cent of the mice treated with PT-100 whereas tumor rejection was not observed in PT-100 treated athymic mice. In the WEHI 164 tumor model, tumor rejection never occurred spontaneously in control mice. […] The data are consistent with a mechanism of action involving increased production of cytokines and chemokines in mice treated with PT-100 as described in Example 1.

IL-1β, G-CSF and KC [3] = assay: ELISA of IL-1β, G-CSF and KC in serum and spleen extracts of B6 and IL-1 receptor-1 mutant mice; assay type: in vivo; conditions: 40 or 160 μg oral, 8 hours
Experimental: Normal B6 mice (+/+) and congenic B6.129S7-Illr1^tmllmx mice with a targeted mutation of the IL-1 receptor-1 (−/−) were orally administered 40 or 160 μg of PT-100 or saline as indicated on the abscissae. 8-hours after PT-100 administration, IL-1β, G-CSF and KC levels were determined by ELISA of serum and extracts of spleen. Cytokine and chemokine levels are indicated on the ordinate as pg/ml or ng/ml of serum, and as pg/mg or ng/mg of protein in each spleen extract as determined by BCA protein assays.

[4] = IL-1 receptor-1 mutant (−/−) mice

| Compound | tumor growth (mean tumor volume) (Namalwa cells) | G-CSF levels in serum (IL-1β, G-CSF and KC [1]; serum) | IL-1β serum levels (IL-1β, G-CSF and KC [1]; serum) | KC levels in serum (IL-1β, G-CSF and KC [1]; serum) | G-CSF levels in spleen (IL-1β, G-CSF and KC [1]; spleen extract) | IL-1β levels in spleen tissue (IL-1β, G-CSF and KC [1]; spleen extract) | KC levels in spleen (IL-1β, G-CSF and KC [1]; spleen extract) | cytokine and chemokine gene expression in tumor and draining inguinal lymph nodes ([2]; WEHI 164 tumor mice, 2 hours after first dose on day 4 after tumor inoculation) | IL-1β mRNA levels in lymph nodes ([2]; oral, 30 minutes vs 2 hours after first dose on day 4, inguinal lymph nodes draining WEHI 164 tumors) | tumor growth (tumor volume) (WEHI 164 tumor cells; athymic BALB/c (nu/nu) mice) | tumor rejection (WEHI 164 tumor cells; athymic BALB/c mice, day 2 until day 20) | mice with tumors completely rejected by day 20 (WEHI 164 tumor cells; euthymic BALB/c mice, day 2 until day 20) | tumor growth (tumor volume) (WEHI 164 tumor cells; normal euthymic BALB/c (+/+) mice) | IL-1β levels in the spleen (IL-1β, G-CSF and KC [3]; IL-1 receptor-1 mutant (−/−) mice compared to normal B6 mice) | serum G-CSF levels (IL-1β, G-CSF and KC [3]; [4]) | serum KC levels (IL-1β, G-CSF and KC [3]; [4]) | splenic G-CSF levels (IL-1β, G-CSF and KC [3]; [4]) | splenic KC levels (IL-1β, G-CSF and KC [3]; [4]) |
| --- | --- | --- | --- | --- | --- | --- | --- | --- | --- | --- | --- | --- | --- | --- | --- | --- | --- | --- |
| Rituxan: human CD20-specific antibody (anti-CD20 mAb rituximab) [reference compound] | significantly (p<0.05) inhibited tumor growth | – | – | – | – | – | – | – | – | – | – | – | – | – | – | – | – | – |
| CC(C)[C@H](N)C(=O)N1CCC[C@H]1B(O)O [PT-100, Val-boroPro] | significantly (p<0.05) inhibited tumor growth | increased in both spleen and serum | without increasing serum levels | increased in both spleen and serum | increased in both spleen and serum | increases IL-1β levels in spleen tissue | increased in both spleen and serum | selective induction of cytokine and chemokine gene expression | increase in lymph nodes before those of other cytokines | significantly inhibited tumor growth | not observed | 40 per cent of the mice | significantly inhibited tumor growth | could still increase IL-1β levels in the spleen; but the magnitude of the response was greatly reduced | essentially unaffected | essentially unaffected | essentially unaffected | essentially unaffected |
